This note sets out measurements from the METLIN SMRT retention time set (Domingo-Almenara et al. 2019).

The data set in a line: gradient 5% acetonitrile 3 min, to 50% in 2 min, to 85% in 15 min, held 3 min, 100 µL/min. The following applies: column: Zorbax Extend-C18 2.1 x 50 mm; eluents: water / acetonitrile, 0.1% formic acid. The gist of the method: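 A Zorbax Extend-C18 column (2.1 × 50 mm, 1.8 μm) run at 100 μL/min with water and acetonitrile, both containing 0.1% formic acid, separated mixtures of ~100 pure standards. The HPLC was coupled to a quadrupole time-of-flight mass spectrometer operated in positive and negative ionization mode, with dead and dwell volumes of 40 μL and 900 μL. Each retention time was taken from a computationally picked adduct peak that was then manually inspected.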
The molecule `COc1ccccc1-c1noc(C2CCCN2C(=O)c2ccc3cc[nH]c3c2)n1` (stereo unspecified) had an RP-LC retention time of 830 s.

`Cc1ccc(CC(=O)N2CCc3c(c(C(=O)N4CCCC(C(=O)NC5CC5)C4)nn3C)C2)cc1` (stereo unspecified) came in with an RP-LC retention time of 681 s.

As to `COc1cccc(-c2csc(Nc3ccc(C)cn3)n2)c1`, the RP-LC retention time stood at 902 s.

Molecule `O=C(C1CC1)N1CCc2sc(S(=O)(=O)Nc3cccc(Cl)c3F)cc2C1` came in with an RP-LC retention time of 870 s.

`Cc1oc(C2CCN(C(=O)Nc3cccc(Cl)c3C)CC2)nc1C(=O)N1CCCC1`: the RP-LC retention time came out at 813 s.

As for `COc1ccc(NC(=O)c2c(O)c3cccnc3n(-c3cccc(F)c3)c2=O)cc1F`, the RP-LC retention time is 1210 s.

Consider `Fc1ccc(Nc2c(-c3ccc(Br)cc3)nc3cnccn23)cc1`, for which the RP-LC retention time was 980 s.

In turn, `Cc1ccc(OCc2nnc3sc(C4COc5ccccc5O4)nn23)cc1` (stereo unspecified) registered an RP-LC retention time of 1010 s.

The molecule `CC(C)NC(=O)C1CCCN(C(=O)Nc2ccc(NC(=O)Nc3ccccc3F)cc2)C1` (stereo unspecified) had an RP-LC retention time of 735 s.

For `CCOC(=O)Cc1csc(NC(=O)C2CC(=O)N(c3n[nH]c4cccc(F)c34)C2)n1` (stereo unspecified), the RP-LC retention time turned out to be 699 s.

The molecule `Cc1csc(-c2cc(S(=O)(=O)NC(C)C)c(C)n2C)n1` gave an RP-LC retention time of 852 s.

Molecule `COC(=O)c1ccc2c(=O)n(-c3ccc4c(c3)OCO4)c(N3CCCCC3)nc2c1` showed an RP-LC retention time of 1080 s.

In turn, `CC(=O)N1CCc2cc(-c3ccc(C(=O)NC4CCS(=O)(=O)C4)cc3)ccc21` (stereo unspecified) showed an RP-LC retention time of 676 s.

In the case of `CNC(=O)c1sc2nc(-c3ccc(OC)cc3)c(NCCOC)n2c1C`, the RP-LC retention time is 656 s.

For the molecule `CC(C)c1noc(-c2ccn3c(CC(=O)N4CCCCC4)nnc3c2)n1`, the RP-LC retention time worked out at 721 s.

Molecule `COCc1c(C(=O)N2CCC3(CCC3O)CC2)noc1C` (stereo unspecified) displayed an RP-LC retention time of 618 s.

In the case of `COc1ccc(-n2ccn3cc(-c4ccc(F)cc4)nc3c2=O)cc1`, the RP-LC retention time came out at 790 s.

For `COc1cccc(CN2CC=C(C(=O)N3CCN(c4ccccc4OC)CC3)CC2)c1`, the RP-LC retention time turned out to be 651 s.

Regarding `O=C(c1cc(-c2cccnc2)n[nH]1)N1CCN(C(=O)C2CC2)CC1`, the RP-LC retention time turned out to be 565 s.

In turn, `O=C(Nc1ccc(N2CCOCC2)cc1)C1=Cc2cc(Cl)ccc2OC=C1` showed an RP-LC retention time of 992 s.

On to `CCn1c(=O)c2ccccc2n(Cc2nc(-c3ccc(OC)cc3)no2)c1=O`, for which the RP-LC retention time amounted to 993 s.

`COc1ccc(CCNC(=O)C2CCc3nc(N4CCCC4)ncc3C2)cc1OC` (stereo unspecified) yielded an RP-LC retention time of 563 s.

`O=C(NCC1CCCO1)C(=O)NCC1(O)CCOCC1` (stereo unspecified) yielded an RP-LC retention time of 540 s.

The molecule `CC(C)CN1CCn2cc(C(=O)NCc3cccc(Br)c3)nc2C1` yielded an RP-LC retention time of 656 s.

In the case of `CCCNc1cc(N2CCC(CCC(=O)Nc3ccc(OCC)cc3)CC2)ncn1`, the RP-LC retention time worked out at 736 s.

Molecule `COC(=O)C1=CN(c2ccccc2C)c2ccc(F)cc2S1(=O)=O` displayed an RP-LC retention time of 879 s.

For `CNC(=O)c1c2c(nc3ccc(F)cc13)CCCC2`, the RP-LC retention time worked out at 571 s.

`CCn1c(=O)c(C)nc2cc(-c3noc(-c4ccc(OC)cc4)n3)ccc21` showed an RP-LC retention time of 942 s.

On to `COCCN1C(=O)c2cc3ccsc3n2CC1(C)C(=O)NCc1ccc(Cl)cc1` (stereo unspecified), for which the RP-LC retention time stood at 837 s.

As to `Cc1cccc(C)c1Nc1c(-c2ccccc2F)nc2cccc(C)n12`, the RP-LC retention time worked out at 757 s.

Turning to `COc1c(C(=O)N2CCN(C3CCCCC3)CC2)sc2ccc(F)cc12`, the RP-LC retention time worked out at 685 s.

The molecule `Cc1ccc(C)n1-c1c(C(=O)N2CCN(c3ccccn3)CC2)sc2ncccc12` yielded an RP-LC retention time of 690 s.

With `CN(C)c1ncnc2c1ncn2-c1ccccc1`, the RP-LC retention time stood at 714 s.

`CCC(=O)N(C1CCOCC1)C1CCN(S(=O)(=O)c2ccccc2)CC1` registered an RP-LC retention time of 764 s.

As to `CCc1nnc2ccc(-c3noc(-c4ccc(OC)c(OC)c4)n3)cn12`, the RP-LC retention time turned out to be 829 s.

As for `CC(=O)N1CCC2(CC1)C(=O)N(C)c1ccccc12`, the RP-LC retention time was 665 s.

In turn, `O=C(CN1CCCCC1c1nc(-c2cccs2)no1)NCc1ccc(Cl)cc1` (stereo unspecified) displayed an RP-LC retention time of 1060 s.

Molecule `O=C(NCc1cccc(Br)c1)c1c(O)c2cccnc2[nH]c1=O` registered an RP-LC retention time of 1000 s.

`CCn1c(=O)oc2cc(-c3noc(-c4ccc(OC)cc4)n3)ccc21` displayed an RP-LC retention time of 976 s.

The molecule `O=C(NCCc1ccccc1)NC(c1ccccc1)c1nnc(-c2ccccc2)o1` (stereo unspecified) yielded an RP-LC retention time of 876 s.

For the molecule `Cn1cnc2c(C(=O)NCCC3=CCCCC3)nn(-c3ccc(Cl)cc3)c2c1=O`, the RP-LC retention time came to 959 s.

Molecule `Cc1ccc(CN2N=C(C(=O)N3CCCCC3)S(=O)(=O)c3ccccc32)cc1` showed an RP-LC retention time of 974 s.

Molecule `CCN1C(=O)C2(CCN(S(=O)(=O)c3ccc(C(C)C)cc3)CC2)c2ccccc21` displayed an RP-LC retention time of 1210 s.

For the molecule `O=C(NCCn1c(=O)n(Cc2ccc(F)cc2)c2cccnc21)c1ccco1`, the RP-LC retention time worked out at 719 s.

In the case of `COc1ccc(NC(=O)N2c3ccccc3CC2c2nc(C(C)C)no2)c(OC)c1` (stereo unspecified), the RP-LC retention time was 1080 s.

`Cn1cnc(S(=O)(=O)N2CCC(C(=O)NCc3ccc(F)cc3)CC2)c1`: the RP-LC retention time came to 670 s.

Regarding `Cc1cc(C(=O)NCc2cccnc2)c2cc(Br)ccc2n1`, the RP-LC retention time was 588 s.

`COc1cccc(NC(=O)Cn2nc3n(c2=O)CCCC3)c1` registered an RP-LC retention time of 634 s.

Turning to `COC(=O)C1=C(CN2CCOCC2)NC(=O)NC1c1ccccc1C` (stereo unspecified), the RP-LC retention time was found to be 590 s.

`COc1cc(OC)c(NC(=O)N2CCc3nc(-c4ccccc4)ncc3C2)cc1Cl` gave an RP-LC retention time of 975 s.

As for `Cc1ccc(N2CC(c3nc(-c4ccccc4C)no3)CC2=O)cc1F` (stereo unspecified), the RP-LC retention time was 1130 s.

Take `O=C(Nc1ccc(Cl)cc1)N1CCC(n2cnc3ccc(F)cc3c2=O)CC1`: the RP-LC retention time amounted to 848 s.

Regarding `CC(=O)Nc1ccc(C2(C(=O)NCc3ccc(C)cc3)CCC2)cc1`, the RP-LC retention time was 790 s.

In the case of `CN1C(=O)CCc2cc(NS(=O)(=O)c3ccc(Cl)c(Cl)c3)ccc21`, the RP-LC retention time turned out to be 1040 s.

Turning to `Cc1nc(-c2ccc(-c3noc(Cc4c[nH]c5ccccc45)n3)cc2)cs1`, the RP-LC retention time was determined as 1090 s.

In turn, `CCN1CCN(c2cc(C(=O)O)c3cc(NS(=O)(=O)c4cccc(F)c4)ccc3n2)CC1` registered an RP-LC retention time of 600 s.

For the molecule `Fc1ccccc1-c1nnc2sc(-c3ccc4ccccc4n3)nn12`, the RP-LC retention time was found to be 1080 s.

`O=C(C1CCN(c2cncnc2N2CCCC2)CC1)N1CCN(c2ccccn2)CC1` showed an RP-LC retention time of 552 s.

`CCC(C)(C)OCC(O)CNCC(C)C` (stereo unspecified): the RP-LC retention time is 579 s.

Regarding `Cc1cnc(SCc2ccc(Cl)cc2Cl)[nH]c1=O`, the RP-LC retention time was 970 s.

Molecule `Nc1ccc(S(=O)(=O)NCC2CCCCO2)cc1` (stereo unspecified) returned an RP-LC retention time of 733 s.

`COc1cc(-c2nnc(/C=C/c3cccs3)o2)cc(OC)c1OC` registered an RP-LC retention time of 886 s.

In turn, `CC(=O)N1CCN(S(=O)(=O)c2ccc3c(c2)OCCCO3)CC1` came in with an RP-LC retention time of 641 s.

`CCOc1ccc(C(=O)N2CCCC2c2nc(-c3ccc(F)cc3F)no2)cc1` (stereo unspecified) displayed an RP-LC retention time of 1010 s.

The molecule `COc1ccc(NC(=O)Cn2nc(N3CCOCC3)c3ccccc3c2=O)c(OC)c1` had an RP-LC retention time of 766 s.

In turn, `Cc1cccc(NS(=O)(=O)c2cc(-c3[nH]ncc3C(=O)N3CCOCC3)oc2C)c1` returned an RP-LC retention time of 683 s.

Take `CCOC(=O)c1cccc(Nc2ncccc2S(=O)(=O)NC)c1`: the RP-LC retention time came to 622 s.

`COc1cccc(CNC(=O)Nc2c(-c3cccc(C)c3)nc3ccccn23)c1` had an RP-LC retention time of 673 s.

`O=C(Cc1nnc(-c2ccc3ncccc3c2)o1)Nc1ccc(OC(F)(F)F)cc1` showed an RP-LC retention time of 806 s.

With `Cc1cccc(NC(=O)Nc2ccc3nncn3c2)c1`, the RP-LC retention time came out at 690 s.

`O=C(c1ccc(Nc2nc3ccccc3n3nnnc23)cc1)N1CCN(c2ccccn2)CC1` showed an RP-LC retention time of 661 s.

Regarding `CCc1nc2ccccc2c(=O)n1Cc1noc(-c2cncc(Br)c2)n1`, the RP-LC retention time worked out at 896 s.

In turn, `COc1ccc2[nH]cc(CCN3CC(C(=O)Nc4nnc(C(F)(F)F)s4)CC3=O)c2c1` (stereo unspecified) came in with an RP-LC retention time of 780 s.

For `Cc1nc(-c2cccnc2)nc2c1CCC(=O)N2CC1CCCO1` (stereo unspecified), the RP-LC retention time came to 626 s.

Molecule `Cc1ccc(Nc2c(-c3cccc(Br)c3)nc3ccccn23)cc1` yielded an RP-LC retention time of 778 s.

For the molecule `CNC(=O)[C@@H]1CN(C(=O)CCc2nc3ccccc3s2)C[C@H]1c1n[nH]c(C)n1`, the RP-LC retention time came to 607 s.

For the molecule `Cc1ccc(Cl)cc1NC(=O)Cn1nc2c(Oc3ccc(C(C)C)cc3)nccn2c1=O`, the RP-LC retention time was 1080 s.

Consider `Cn1cnc(S(=O)(=O)N2CCC(C(=O)NC3CCCCCC3)CC2)c1`, for which the RP-LC retention time turned out to be 680 s.

For the molecule `COc1cc(C(=O)N2CCN(c3cc(C(C)C)n4cnnc4n3)CC2)cc(OC)c1OC`, the RP-LC retention time amounted to 613 s.

On to `CCOC(=O)c1c(C)[nH]c(CCC(=O)NCC2CCCO2)c1C` (stereo unspecified), for which the RP-LC retention time is 686 s.

`CCCCN1CCN(S(=O)(=O)c2cc(-c3nnc(C(C)C)o3)co2)CC1`: the RP-LC retention time came out at 652 s.
